From PMC8395690, “Entropy–Entropy Compensation between the Protein, Ligand, and Solvent Degrees of Freedom Fine-Tunes Affinity in Ligand Binding to Galectin-3C” (JACS Au, 2021)
Like-named read-outs stand apart in the source and are kept apart here.

Biological target: T1, galectin-3C (carbohydrate recognition domain of galectin-3) (Homo sapiens, UniProt P17931)
T1 construct: gene LGALS3; carbohydrate recognition domain of galectin-3 (residues 113–250)
Experiment: ITC; X-ray crystal structure; NMR titration
Format: binding

T1 sequence (P17931 113-250): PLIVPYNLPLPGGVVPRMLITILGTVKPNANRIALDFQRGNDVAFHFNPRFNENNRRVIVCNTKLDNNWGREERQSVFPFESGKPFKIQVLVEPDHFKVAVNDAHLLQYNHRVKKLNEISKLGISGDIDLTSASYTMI

OC[C@H]1O[C@@H](S[C@@H]2O[C@H](CO)[C@@H](O)[C@H](O)[C@H]2O)[C@H](O)[C@@H](n2cc(-c3cccc(F)c3)nn2)[C@H]1O [M]
Kd (read-out: Kd ITC (10^-6 M) ^a): 2000 nM

OC[C@H]1O[C@@H](S[C@@H]2O[C@H](CO)[C@@H](O)[C@H](O)[C@H]2O)[C@H](O)[C@@H](n2cc(-c3ccccc3F)nn2)[C@H]1O [O]
Kd: 7210 nM

OC[C@H]1O[C@@H](S[C@@H]2O[C@H](CO)[C@@H](O)[C@H](O)[C@H]2O)[C@H](O)[C@@H](n2cc(-c3ccc(F)cc3)nn2)[C@H]1O [P]
Kd (read-out: Kd ITC (10^-6 M) ^a): 2460 nM
